Test results taken from patent US20250195530A1, “POLQ INHIBITORS” (ASTRAZENECA AB, priority 2022, published 2025).

Test system: DLD-1 BRCA2−/− cells
Test: Homologous recombination synthetic lethal inhibition of proliferation, DLD-1 BRCA2-/- (Cell Titre Glo 3D)
Format: cell-based
Conditions: Homo sapiens, DLD-1, DLD-1 BRCA2 −/− cells; mean; read-out: POLQ PD Prolif Lumin BRCA2 −/− mean pIC50 (converted)
In short: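 Luminescent Cell Titre Glo 3D readout, taken on day 12 for homologous-recombination-deficient DLD-1 BRCA2−/− and day 7 for the wild-type control, after compound refresh on day 6. Compounds spanned 10 μM to 0.51 nM in three-fold steps; IC50 defined as 50% reduction of average maximum signal.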

Structure (SMILES)	IC50
CC1(Oc2ncnc3c2nc(-c2ccc(CC(N)=O)cc2Cl)n3Cc2ccccc2C#N)CC1 [Example T82, 2-(3-chloro-4-(9-(2-cyanobenzyl)-6-(1-methylcyclopropoxy)-9H-purin-8-yl)phenyl)acetamide]	316 nM
CC1(Oc2ncnc3c2nc(-c2ccc(CC(N)=O)cc2Cl)n3Cc2ccc(C#N)cc2)CC1 [Example T83, 2-(3-chloro-4-(9-(4-cyanobenzyl)-6-(1-methylcyclopropoxy)-9H-purin-8-yl)phenyl)acetamide]	7940 nM
CC1(Oc2ncnc3c2nc(-c2ccc(OCCC(=O)O)cc2Cl)n3Cc2ccc(Cl)c(Cl)c2)CC1 [Example T84, 3-(3-chloro-4-(9-(3,4-dichlorobenzyl)-6-(1-methylcyclopropoxy)-9H-purin-8-yl)phenoxy)propanoic acid]	2000 nM
Cc1ccnc(Cn2c(-c3ccc(C(=O)NCC(F)(F)F)cc3Cl)nc3c(OC4(C)CC4)ncnc32)c1 [Example T86, 3-chloro-4-(6-(1-methylcyclopropoxy)-9-((4-methylpyridin-2-yl)methyl)-9H-purin-8-yl)-N-(2,2,2-trifluoroethyl)benzamide]	501 nM
CC1(Oc2ncnc3c2nc(-c2ccc(OCCC(=O)O)cc2Cl)n3Cc2ccccc2Cl)CC1 [Example T88, 3-(3-chloro-4-(9-(2-chlorobenzyl)-6-(1-methylcyclopropoxy)-9H-purin-8-yl)phenoxy)propanoic acid]	794 nM
C[C@H](Oc1cccc(-c2nc3c(OC4(C)CC4)ncnc3n2Cc2cccc(Cl)c2)c1Cl)C(=O)O [Example T90, (S)-2-(2-chloro-3-(9-(3-chlorobenzyl)-6-(1-methylcyclopropoxy)-9H-purin-8-yl)phenoxy)propanoic acid]	2000 nM
Cc1ccnc(Cn2c(-c3ccc(C(=O)NCC(F)F)cc3Cl)nc3c(OC4(C)CC4)ncnc32)c1 [Example T93, 3-chloro-N-(2,2-difluoroethyl)-4-(6-(1-methylcyclopropoxy)-9-((4-methylpyridin-2-yl)methyl)-9H-purin-8-yl)benzamide]	316 nM
CC1(Oc2ncnc3c2nc(-c2ccc(OCCCO)cc2Cl)n3Cc2cc(C(F)(F)F)ccn2)CC1 [Example T94, 3-(3-chloro-4-(6-(1-methylcyclopropoxy)-9-((4-(trifluoromethyl)pyridin-2-yl)methyl)-9H-purin-8-yl)phenoxy)propan-1-ol]	200 nM
Cc1ccnc(Cn2c(-c3ccc(N4CCC4=O)cc3Cl)nc3c(OC4(C)CC4)ncnc32)c1 [Example T95, 1-(3-chloro-4-(6-(1-methylcyclopropoxy)-9-((4-methylpyridin-2-yl)methyl)-9H-purin-8-yl)phenyl)azetidin-2-one]	200 nM
Cc1ccnc(Cn2c(-c3ccc(N4CCOC4=O)cc3Cl)nc3c(OC4(C)CC4)ncnc32)c1 [Example T96, 3-(3-chloro-4-(6-(1-methylcyclopropoxy)-9-((4-methylpyridin-2-yl)methyl)-9H-purin-8-yl)phenyl)oxazolidin-2-one]	100 nM
CC1(Oc2ncnc3c2nc(-c2ccc(NCCC(=O)O)cc2Cl)n3Cc2cccc(Cl)c2)CC1 [Example T97, 3-((3-chloro-4-(9-(3-chlorobenzyl)-6-(1-methylcyclopropoxy)-9H-purin-8-yl)phenyl)amino)propanoic acid]	1260 nM
Cc1ccnc(Cn2c(-c3ccc(OCC(F)(F)CO)cc3Cl)nc3c(OC4(C)CC4)ncnc32)c1 [Example T98, 3-(3-chloro-4-(6-(1-methylcyclopropoxy)-9-((4-methylpyridin-2-yl)methyl)-9H-purin-8-yl)phenoxy)-2,2-difluoropropan-1-ol]	100 nM
Cc1cccc(Cn2c(-c3ccc(CC(N)=O)cc3Cl)nc3c(OC4(C)CC4)ncnc32)c1 [Example T99, 2-(3-chloro-4-(9-(3-methylbenzyl)-6-(1-methylcyclopropoxy)-9H-purin-8-yl)phenyl)acetamide]	79.4 nM
Cc1ccc(Cn2c(-c3ccc(CC(N)=O)cc3Cl)nc3c(OC4(C)CC4)ncnc32)cc1 [Example T100, 2-(3-chloro-4-(9-(4-methylbenzyl)-6-(1-methylcyclopropoxy)-9H-purin-8-yl)phenyl)acetamide]	794 nM
